Measured values reported in PMC10144058, “New Hybrid Scaffolds Based on 5-FU/Curcumin: Synthesis, Cytotoxic, Antiproliferative and Pro-Apoptotic Effect” (Pharmaceutics, 2023).

Assays:
SW480 cells [1] = assay: Cell death induction (Annexin-V/PI, flow cytometry); assay type: cell-based, human; conditions: SW480, treated with IC50, 48 h
Protocol: For this method, 250,000 cells/well were initially seeded in 6-well culture plates during a 24 h adherence period at 37 °C in a 5% CO2 atmosphere. […] After treatment, cells were obtained by mechanical disaggregation, resuspended in a solution with Annexin-V-FLUOS and PI, and incubated for 20 min in the dark before flow cytometry analysis.

CHO-K1 cells = assay: Cell viability, sulforhodamine B (SRB) assay, non-malignant cells; assay type: cell-based, Chinese Hamster; conditions: Cricetulus griseus
Protocol: (§1) SW480 (colon adenocarcinoma) and SW620 (derived metastatic) malignant cell lines, and the non-malignant lines HaCaT (human keratinocytes) and CHO-K1 (Chinese Hamster Ovary), were obtained from the European Collection of Authenticated Cell Cultures (ECACC, Porton Down, Salisbury, UK). The cells were maintained in Dulbecco’s Modified Eagle’s Medium (DMEM), supplemented with 10% equine serum previously inactivated at 56 °C, 1% penicillin/streptomycin, and 1% non-essential amino acids, and incubated at 37 °C in an atmosphere with 5% CO2. To carry out the experiments, the serum was diluted to 3% and additionally supplemented with […] insulin, […] transferrin, and 5 ng/mL selenium. Cells were used for experimentation when they reached 80–90% confluence, using a 1X trypsin enzymatic disintegration method. To avoid contamination by Mycoplasma spp., cell cultures were periodically analyzed by polymerase chain reaction (PCR).
(§2) Cell viability was evaluated with a sulforhodamine B (SRB) assay. This technique provides an index of protein contents in living and adherent cells, whose optical density can be related to cell concentration. Initially, 20,000 cells were seeded per well in 96-well culture plates. An initial adherence period of 24 h was performed at 37 °C, 5% CO2, and after this, the medium was replaced by another that contained the hybrid compounds in different concentrations. Then, the cells were left incubating for 24 and 48 h under the same conditions previously described. After the respective incubation times, the cells were fixed with trichloroacetic acid (50% v/v) for 1 h at 4 °C and stained with 0.4% (p/v) of SRB. Subsequently, washings with 1% acetic acid were carried out to eliminate possible nonspecific bindings, and after solubilization with 10 mM Tris-base, the absorbance was read at 492 nm in a microplate reader (Mindray MR-96A). All the experiments were carried out in triplicate.

SW480 cells [2] = assay: Cell viability, sulforhodamine B (SRB) assay; assay type: cell-based; conditions: Homo sapiens
Protocol: as §1, §2

[3] = tested on: caspase 3, caspase 7, caspase 8 and p53 in SW480 cells; assay: Apoptotic biomarkers (ELISA); assay type: cell-based, human; conditions: SW480, treated with IC50, 48 h, vs control
Protocol: (§3) To provide an approach to the possible molecular mechanisms through which the hybrid compounds induce an effect on the cell lines, different proteins related to the process of death by apoptosis were determined. For this method, 1,000,000 cells were initially seeded per Petri dish, with an adherence period of 24 h at 37 °C in a 5% CO2 atmosphere. […] Later, the consumed medium was discarded, and after the addition of the versene buffer, the cells were obtained by mechanical disaggregation. The cells were then lysed with a cell lysis buffer and centrifuged to obtain the supernatant, which was used to determine the biomarkers of interest by enzyme-linked immunosorbent assays. These ELISA kits were provided by Elabscience Biotechnology Co., Houston, TX, USA [26].

[4] = tested on: caspase 3, caspase 7, caspase 8 and p53 in SW620 cells; assay: Apoptotic biomarkers (ELISA); assay type: cell-based, human; conditions: SW620, treated with IC50, 48 h, vs control
Protocol: as §3

SW620 cells [5] = assay: Cell viability, sulforhodamine B (SRB) assay; assay type: cell-based, human; conditions: Homo sapiens
Protocol: as §1, §2

SW480 cells [6] = assay: Cell cycle analysis (PI, flow cytometry); assay type: cell-based, human; conditions: SW480, treated with IC50 value, 48 h
Protocol: (§4) The method used for the recognition of cell cycle phases (G0/G1, S, G2/M) was based on staining with a fluorescent dye (propidium iodide—PI), as a direct relationship between fluorescence intensity and DNA content can be established. For this method, 250,000 cells/well were initially seeded in 6-well culture plates with an adherence period of 24 h at 37 °C in a 5% CO2 atmosphere. […] After treatment, cells were obtained by mechanical disaggregation, and the cell pellet was centrifuged and washed with a versene buffer. The cell pellet was fixed with 1.8 mL of cold 70% ethanol and kept at 4 °C overnight. Subsequently, two washes with a versene buffer were performed, and the pellet was resuspended in 300 µL of PBS containing 0.25 mg/mL of RNAsa and 0.1 mg/mL of PI. After a 30 min period of dark incubation, the fluorescence of 10,000 cells was analyzed using a FACS Canto II flow cytometer. The PI signal was analyzed with excitation at 488 nm using a sapphire laser, and fluorescence was detected at 610 nm. The data analysis was performed with FlowJo 10.8.1 software.

SW620 cells [7] = assay: Cell cycle analysis (PI, flow cytometry); assay type: cell-based, human; conditions: SW620, treated with IC50 value, 48 h
Protocol: as §4

SW480 cells [8] = assay: Mitochondrial membrane potential (DiOC6/PI, flow cytometry); assay type: cell-based, human; conditions: SW480, treated with IC50, 48 h
Protocol: (§5) The fluorescent dyes PI and DIOC6 (3,3’-dihexyloxacarbocyanine iodide) were used to observe the depolarization of the mitochondrial membrane as well as possible cell membrane damage. For this method, 250,000 cells/well were initially seeded in 6-well culture plates during a 24 h adherence period at 37 °C in a 5% CO2 atmosphere. […] After treatment, cells were obtained by mechanical disaggregation, stained with DiOC6 and PI, and incubated at room temperature for 30 min in the dark. Ten thousand events were analyzed by flow cytometry with excitation at 488 nm and emission detection with green (530/15 nm) and red (610/20 nm) filters.

SW620 cells [9] = assay: as above; assay type: cell-based, human; conditions: SW620, treated with IC50, 48 h
Protocol: as §5

IC50 (SW480 cells [2]; SW480, 24 h): 15.7 ± 1.91 µM | IC50 (SW480 cells [2]; SW480, 48 h): 2.43 ± 0.33 µM | IC50 (SW620 cells [5]; SW-620, 24 h, 24 h): 37.1 ± 3.05 µM | IC50 (SW620 cells [5]; SW-620, 48 h, 48 h): 7.51 ± 1.47 µM
Compound: COc1cc(/C=C/C(=O)c2ccc(OCCCCCn3cc(Cn4cc(F)c(=O)[nH]c4=O)nn3)cc2)ccc1O [Compound 6d, (E)-5-fluoro-1-((1-(5-(4-(3-(4-hydroxy-3-methoxyphenyl)acryloyl)phenoxy)pentyl)-1H-1,2,3-triazol-4-yl)methyl)pyrimidine-2,4(1H,3H)-dione]
Annexin V/PI quadrant Q3 (early apoptotic cells) (SW480 cells [1]): 50.2% | IC50 (CHO-K1 cells; CHO-K1, 24 h): 12.4 ± 1.34 µM | IC50 (CHO-K1 cells; CHO-K1, 48 h): 28.1 ± 1.95 µM | levels of biomarkers (caspase 3, caspase 7, caspase 8, p53) [3]: no significant differences | levels of biomarkers (caspase 3, caspase 7, caspase 8, p53) [4]: no significant differences | Cell cycle distribution, G0/G1 (SW480 cells [6]): 42.9% | Cell cycle distribution, G2/M (SW480 cells [6]): 10.1% | Cell cycle distribution, S Phase (SW480 cells [6]): 20.0% | Cell cycle distribution, Sub G0/G1 (SW480 cells [6]): 24.1% | Cell cycle distribution, G0/G1 (SW620 cells [7]): 4.4% | Cell cycle distribution, G2/M (SW620 cells [7]): 11.0% | Cell cycle distribution, S Phase (SW620 cells [7]): 24.7% | Dioc6 High population (live cells with high membrane polarization) (SW480 cells [8]): 76.2% | Dioc6 Low population (cells that lose membrane polarization) (SW480 cells [8]): 0% | PI+ population (membrane damage or dead cells) (SW480 cells [8]): 23.7% | changes in the mitochondrial membrane potential (SW480 cells [8]): do not induce significant changes | Dioc6 High population (live cells with high membrane polarization) (SW620 cells [9]): 19.2% | Dioc6 Low population (cells that lose membrane polarization) (SW620 cells [9]): 0.11% | PI+ population (membrane damage or dead cells) (SW620 cells [9]): 76.1% | changes in the mitochondrial membrane potential (SW620 cells [9]): do not induce significant changes
